≈ marks a conversion by molar mass, not a printed value. Where two headings read alike, the source gives them in different places.
How the values were obtained:
Escherichia coli K-12 = assay: Antibacterial spectrum, standard serial dilution method; assay type: cell-based; conditions: K12, 18 h, read-out: Minimum Growth Inhibitory Concentration
[1] = system: Staphylococcus aureus 209P; assay: Antibacterial spectrum, standard serial dilution method of Japan Society of Chemotherapy; assay type: cell-based; conditions: 209P, 18 h, read-out: Minimum Growth Inhibitory Concentration
[2] = system: Bacillus subtilis NRRL B-558; assay: Antibacterial spectrum, standard serial dilution method; assay type: cell-based; conditions: read-out: Minimum Growth Inhibitory Concentration
[3] = system: Escherichia coli K-12 ML1629; assay: as above; assay type: cell-based; conditions: K12ML1629, E. coli K-12 ML1629, Muller-Hinton medium, 37° C., 18 hours, read-out: Minimum Growth Inhibitory Concentration
[4] = system: Shigella dysernteriae JS11910; assay: as above; assay type: cell-based; conditions: Muller-Hinton medium, 37° C., 18 hours, read-out: Minimum Growth Inhibitory Concentration
Proteus vulgaris OX19 = assay: as above; assay type: cell-based; conditions: Proteus vulgaris, OX19, 18 h, read-out: Minimum Growth Inhibitory Concentration
[5] = system: Micrococcus flavus FDA 16; assay: as above; assay type: cell-based; conditions: Micrococcus flavus, FDA16, 18 h, read-out: Minimum Growth Inhibitory Concentration
[6] = system: Pseudomonas aeruguinosa H11; assay: as above; assay type: cell-based, Pseudomonas aeruginosa; conditions: Muller-Hinton medium, 37° C., 18 hours, read-out: Minimum Growth Inhibitory Concentration
[7] = system: Pseudomonas aeruguinosa GN315; assay: as above; assay type: cell-based, Pseudomonas aeruginosa; conditions: Pseudomonas aeruguinosa GN315; Muller-Hinton medium, 37° C., 18 hours; read-out: Minimum Growth Inhibitory Concentration
[8] = system: Escherichia coli K-12 J5 R11-2; assay: as above; assay type: cell-based; conditions: K12J5R112, 18 h, read-out: Minimum Growth Inhibitory Concentration
[9] = system: Klebsiella Pneumoniae PCI 602; assay: as above; assay type: cell-based; conditions: read-out: Minimum Growth Inhibitory Concentration
Proteus rettgeri GN311 = assay: as above; assay type: cell-based; conditions: Providencia rettgeri, read-out: Minimum Growth Inhibitory Concentration
[10] = system: Pseudomonas aeruguinosa PST1; assay: as above; assay type: cell-based, Pseudomonas aeruginosa; conditions: Muller-Hinton medium, 37° C., 18 hours, read-out: Minimum Growth Inhibitory Concentration
Serratia sp. SOU = assay: as above; assay type: cell-based; conditions: Serratia, 18 h, read-out: Minimum Growth Inhibitory Concentration
Providencia sp. Pv16 = assay: as above; assay type: cell-based; conditions: Providencia, SP.PV16, 18 h, read-out: Minimum Growth Inhibitory Concentration
Escherichia coli JR225 = assay: as above; assay type: cell-based; conditions: JR225, 18 h, read-out: Minimum Growth Inhibitory Concentration
[11] = system: Mycobacterium smegmatis ATCC 607; assay: as above; assay type: cell-based; conditions: Mycolicibacterium smegmatis, read-out: Minimum Growth Inhibitory Concentration
[12] = system: Staphylococcus aureus Smith; assay: as above; assay type: cell-based; conditions: 18 h, read-out: Minimum Growth Inhibitory Concentration
[13] = system: Staphylococcus epidermidis 109; assay: as above; assay type: cell-based; conditions: Staphylococcus epidermidis, 109, 18 h, read-out: Minimum Growth Inhibitory Concentration
[14] = system: Staphylococcus aureus Ap 01; assay: as above; assay type: cell-based; conditions: AP01, 18 h, read-out: Minimum Growth Inhibitory Concentration
[15] = system: Bacillus cereus ATCC 1-702; assay: as above; assay type: cell-based; conditions: read-out: Minimum Growth Inhibitory Concentration
[16] = system: Pseudomonas aeruguinosa TI-13; assay: as above; assay type: cell-based, Pseudomonas aeruginosa; conditions: TI13; Pseudomonas aeruguinosa TI-13; Muller-Hinton medium, 37° C., 18 hours; read-out: Minimum Growth Inhibitory Concentration
[17] = system: Salmonella enteritidis 1891; assay: as above; assay type: cell-based; conditions: Salmonella enterica, Muller-Hinton medium, 37° C., 18 hours, read-out: Minimum Growth Inhibitory Concentration
[18] = system: Pseudomonas maltophilia GN907; assay: as above; assay type: cell-based; conditions: Stenotrophomonas maltophilia, Muller-Hinton medium, 37° C., 18 hours, read-out: Minimum Growth Inhibitory Concentration
[19] = system: Klebsiella pneumoniae 22 = 3038; assay: as above; assay type: cell-based; conditions: read-out: Minimum Growth Inhibitory Concentration
[20] = system: Pseudomonas aeruguinosa A3; assay: as above; assay type: cell-based, Pseudomonas aeruginosa; conditions: read-out: Minimum Growth Inhibitory Concentration
[21] = system: Escherichia coli K-12 ML1410; assay: as above; assay type: cell-based; conditions: read-out: Minimum Growth Inhibitory Concentration
[22] = system: Pseudomonas aeruguinosa B-13; assay: as above; assay type: cell-based, Pseudomonas aeruginosa; conditions: B13, Muller-Hinton medium, 37° C., 18 hours, read-out: Minimum Growth Inhibitory Concentration
[23] = system: Pseudomonas aeruguinosa ROS 134/PU21; assay: as above; assay type: cell-based, Pseudomonas aeruginosa; conditions: ROS134/PU21, 18 h, read-out: Minimum Growth Inhibitory Concentration
[24] = system: Escherichia coli K-12 R388; assay: as above; assay type: cell-based; conditions: K12R388, 18 h, read-out: Minimum Growth Inhibitory Concentration
[25] = system: Pseudomonas aeruguinosa No.12; assay: as above; assay type: cell-based, Pseudomonas aeruginosa; conditions: Muller-Hinton medium, 37° C., 18 hours, read-out: Minimum Growth Inhibitory Concentration
Serratia sp. 4 = assay: as above; assay type: cell-based; conditions: Muller-Hinton medium, 37° C., 18 hours, read-out: Minimum Growth Inhibitory Concentration
Serratia marcescens = assay: as above; assay type: cell-based; conditions: 18 h, read-out: Minimum Growth Inhibitory Concentration

## CNCC1CCC(O)C(OC2C(N)CC(O)C(N(C)C(=O)CCN)C2O)O1 (stereo not drawn) [Compound No. 4, 4-N-(β-Alanyl)-2'-deamino-2'-hydroxy-3-O-demethylistamycin Bo]
Escherichia coli K-12
  MIC: 1.56 mg/L (≈ 4 µM)
[1]
  MIC: 1.56 mg/L (≈ 4 µM)
[2]; NRRLB558, Bacillus subtilis NRRL B-558, Muller-Hinton medium, 37° C., 18 hours
  MIC: 0.78 mg/L (≈ 2 µM)
[3]
  MIC: 3.13 mg/L (≈ 8.02 µM)
[4]
  MIC: 3.13 mg/L (≈ 8.02 µM)
Proteus vulgaris OX19
  MIC: 1.56 mg/L (≈ 4 µM)
[5]
  MIC: 3.13 mg/L (≈ 8.02 µM)
[6]
  MIC: 12.5 mg/L (≈ 32 µM)
[7]
  MIC: 12.5 mg/L (≈ 32 µM)
[8]
  MIC: 0.78 mg/L (≈ 2 µM)
[9]; Klebsiella pneumoniae, 18 h
  MIC: 3.13 mg/L (≈ 8.02 µM)
Proteus rettgeri GN311; Proteus rettgeri GN311, Muller-Hinton medium, 37° C., 18 hours
  MIC: 0.78 mg/L (≈ 2 µM)
[10]
  MIC: 12.5 mg/L (≈ 32 µM)
Serratia sp. SOU
  MIC: 1.56 mg/L (≈ 4 µM)
Providencia sp. Pv16
  MIC: 1.56 mg/L (≈ 4 µM)
Escherichia coli JR225
  MIC: 1.56 mg/L (≈ 4 µM)
[11]; ATCC607, 18 h
  MIC: 6.25 mg/L (≈ 16 µM)
[12]
  MIC: 1.56 mg/L (≈ 4 µM)
[13]
  MIC: 1.56 mg/L (≈ 4 µM)
[14]
  MIC: 3.13 mg/L (≈ 8.02 µM)
[15]; Bacillus cereus, ATCC1, 18 h
  MIC: 6.25 mg/L (≈ 16 µM)
[16]
  MIC: 12.5 mg/L (≈ 32 µM)
[17]
  MIC: 3.13 mg/L (≈ 8.02 µM)
[18]
  MIC: > 100 mg/L
[19]; Klebsiella pneumoniae, 18 h
  MIC: 3.13 mg/L (≈ 8.02 µM)
[20]; Pseudomonas aeruguinosa A3, Muller-Hinton medium, 37° C., 18 hours
  MIC: 0.39 mg/L (≈ 0.999 µM)
[21]; K12ML1410, 18 h
  MIC: 6.25 mg/L (≈ 16 µM)
[22]
  MIC: 12.5 mg/L (≈ 32 µM)
[23]
  MIC: 100 mg/L (≈ 256 µM)
[24]
  MIC: 1.56 mg/L (≈ 4 µM)
[25]
  MIC: 12.5 mg/L (≈ 32 µM)
Serratia sp. 4
  MIC: 12.5 mg/L (≈ 32 µM)
Serratia marcescens
  MIC: 3.13 mg/L (≈ 8.02 µM)

## CNCC1CCC(O)C(OC2C(N)CC(OC)C(N(C)C(=O)CCN)C2O)O1 (stereo not drawn) [Compound No. 3, 4-N-(β-Alanyl)-2'-deamino-2'-hydroxyistamycin Bo]
Escherichia coli K-12
  MIC: 3.13 mg/L (≈ 7.74 µM)
[1]
  MIC: 6.25 mg/L (≈ 15.5 µM)
[2]; Bacillus subtilis, NRRLB558, 18 h
  MIC: 3.13 mg/L (≈ 7.74 µM)
[3]
  MIC: 6.25 mg/L (≈ 15.5 µM)
[4]
  MIC: 3.13 mg/L (≈ 7.74 µM)
Proteus vulgaris OX19
  MIC: 3.13 mg/L (≈ 7.74 µM)
[5]
  MIC: 6.25 mg/L (≈ 15.5 µM)
[6]
  MIC: 100 mg/L (≈ 247 µM)
[7]
  MIC: 50 mg/L (≈ 124 µM)
[8]
  MIC: 3.13 mg/L (≈ 7.74 µM)
[9]; Klebsiella Pneumoniae PCI 602, Muller-Hinton medium, 37° C., 18 hours
  MIC: 12.5 mg/L (≈ 30.9 µM)
Proteus rettgeri GN311; GN311, 18 h
  MIC: 3.13 mg/L (≈ 7.74 µM)
[10]
  MIC: 100 mg/L (≈ 247 µM)
Serratia sp. SOU
  MIC: 3.13 mg/L (≈ 7.74 µM)
Providencia sp. Pv16
  MIC: 3.13 mg/L (≈ 7.74 µM)
Escherichia coli JR225
  MIC: 3.13 mg/L (≈ 7.74 µM)
[11]; ATCC607, Mycobacterium smegmatis ATCC 607, Muller-Hinton medium, 37° C., 18 hours
  MIC: 25 mg/L (≈ 61.8 µM)
[12]
  MIC: 3.13 mg/L (≈ 7.74 µM)
[13]
  MIC: 3.13 mg/L (≈ 7.74 µM)
[14]
  MIC: 6.25 mg/L (≈ 15.5 µM)
[15]; ATCC1, Bacillus cereus ATCC 1-702, Muller-Hinton medium, 37° C., 18 hours
  MIC: 25 mg/L (≈ 61.8 µM)
[16]
  MIC: 100 mg/L (≈ 247 µM)
[17]
  MIC: 6.25 mg/L (≈ 15.5 µM)
[18]
  MIC: > 100 mg/L
[19]; Klebsiella pneumoniae 22 = 3038, Muller-Hinton medium, 37° C., 18 hours
  MIC: 12.5 mg/L (≈ 30.9 µM)
[20]; Pseudomonas, A3, 18 h
  MIC: 3.13 mg/L (≈ 7.74 µM)
[21]; K12ML1410, E. coli K-12 ML1410, Muller-Hinton medium, 37° C., 18 hours
  MIC: 12.5 mg/L (≈ 30.9 µM)
[22]
  MIC: 100 mg/L (≈ 247 µM)
[23]
  MIC: > 100 mg/L
[24]
  MIC: 3.13 mg/L (≈ 7.74 µM)
[25]
  MIC: 100 mg/L (≈ 247 µM)
Serratia sp. 4
  MIC: 100 mg/L (≈ 247 µM)
Serratia marcescens
  MIC: 6.25 mg/L (≈ 15.5 µM)

Source: US4795743A, “2'-deamino-2'-hydroxyistamycin Bo derivatives of low toxicity” (Zaidan Hojin Biseibutsu Kagaku Kenkyu Kai, priority 1986, dated 1989)
